The IC50 is the concentration that gives 50% inhibition. The low end stands for greater potency, the high end for weaker potency.

Structures are written as SMILES.

For one test, the target named is human TRPA1 channel (Homo sapiens (Human), UniProt O75762). Nature of the test: TRPA1 inhibitor activity, automated patch clamp (SyncroPatch). To be noted: CHO cells inducibly expressing human TRPA1, currents elicited by carvacrol (300 μM), holding potential −60 mV. Format: cell-based. How it is done: This assay was used to evaluate the disclosed compounds' inhibition activities against the human TRPA1 channel.
human TRPA1 channel, sequence (O75762 whole entry): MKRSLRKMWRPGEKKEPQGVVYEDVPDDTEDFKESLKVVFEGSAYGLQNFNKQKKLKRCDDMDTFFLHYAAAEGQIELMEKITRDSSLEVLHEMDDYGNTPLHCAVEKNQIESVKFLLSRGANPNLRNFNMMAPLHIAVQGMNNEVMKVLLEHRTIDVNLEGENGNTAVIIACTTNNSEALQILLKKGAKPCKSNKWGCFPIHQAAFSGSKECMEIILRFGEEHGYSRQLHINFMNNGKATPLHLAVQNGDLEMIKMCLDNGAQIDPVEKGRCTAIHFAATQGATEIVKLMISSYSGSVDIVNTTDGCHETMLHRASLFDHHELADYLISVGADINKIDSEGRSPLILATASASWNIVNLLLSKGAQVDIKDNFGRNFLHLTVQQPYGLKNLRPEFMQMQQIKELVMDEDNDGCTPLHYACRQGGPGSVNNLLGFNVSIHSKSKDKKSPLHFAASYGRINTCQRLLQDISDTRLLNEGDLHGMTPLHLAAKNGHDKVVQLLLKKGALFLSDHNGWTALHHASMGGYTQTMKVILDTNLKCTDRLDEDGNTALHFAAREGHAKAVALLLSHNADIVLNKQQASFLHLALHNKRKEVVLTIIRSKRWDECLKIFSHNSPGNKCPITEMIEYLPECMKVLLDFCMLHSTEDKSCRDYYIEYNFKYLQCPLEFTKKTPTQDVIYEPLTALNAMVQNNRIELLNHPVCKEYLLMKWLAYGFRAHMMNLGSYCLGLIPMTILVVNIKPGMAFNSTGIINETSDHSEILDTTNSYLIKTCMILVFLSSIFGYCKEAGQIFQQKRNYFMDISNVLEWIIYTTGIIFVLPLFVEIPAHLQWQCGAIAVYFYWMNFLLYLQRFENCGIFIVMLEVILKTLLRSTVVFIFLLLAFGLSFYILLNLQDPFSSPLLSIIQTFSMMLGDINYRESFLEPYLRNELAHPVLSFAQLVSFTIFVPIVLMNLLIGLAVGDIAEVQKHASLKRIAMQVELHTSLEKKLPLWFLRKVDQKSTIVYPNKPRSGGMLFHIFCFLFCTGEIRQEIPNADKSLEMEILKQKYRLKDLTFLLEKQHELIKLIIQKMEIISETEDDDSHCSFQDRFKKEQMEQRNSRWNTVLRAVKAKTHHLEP
CHO cells inducibly expressing human TRPA1 were grown in DMEM containing 10% heat-inactivated FBS, 1 mM Sodium Pyruvate, 2 mM L-Glutamine, Zeocin (100 μg/ml) and Blasticidin (10 μg/ml). Expression was induced by addition of Doxycycline (1 μg/ml) 24 hours before experiments. Cells used for electrophysiology were plated in plastic culture flasks and grown at 37° C. in a 5% CO2-humidified tissue culture incubator per ChanPharm SOP. Stocks were maintained in cryogenic storage.
The cells were bathed in an extracellular solution containing 80 mM NaCl, 60 mM NMDG, 4 mM KCl, 2 mM CaCl2), 6 mM MgCl2, 5 mM Glucose. 10 mM HEPES, 3 mM HEDTA; pH adjusted to 7.4 with NaOH; 305-310 mOsm. All compounds were dissolved in DMSO at 30 mM. The internal solution contained 10 mM CsCl, 110 mM CsF, 10 mM NaCl, 10 mM EGTA, 10 mM HEPES, 4 mM MgATP, 0.25 mM NaGTP, 4 mM BAPTA; pH adjusted to 7.2 with CsOH; 285-290 mOsm. Compound stock solutions were freshly diluted with external solution to concentrations of 3 nM, 10 nM 30 nM, 100 nM, 300 nM, 1 μM, 3 μM, 10 μM, and 30 μM. The highest content of DMSO (0.1%) was present at 30 μM.
All experiments were performed at room temperature. Each cell acted as its own control. In preparation for a current recording session, intracellular solution (see above) was loaded into the intracellular compartments of the automated patch clamp platform SyncroPatch (Nanion) chip and the cell suspension was pipetted into the extracellular compartments. After establishment of a whole-cell configuration, membrane current recordings and compound application were enabled by means of the SyncroPatch. TRPA1 currents were elicited by application of carvacrol (300 μM) at a constant holding potential of −60 mV (see Table A below).
To determine IC50 values, AUC and peak values, obtained in the presence of a given compound concentration, were normalized to control values in absence of compound. Using DataControl384 (Nanion's proprietary software), IC50 values were derived by fitting the normalized data to the Hill equation.

For the next test, the target named is hERG channel (Homo sapiens (Human), UniProt Q12809). Nature of the test: hERG activity, automated patch clamp (SyncroPatch). The test is classed as cell-based. Conditions: CHO-K1 cells stably expressing hERG; tail current at −50 mV; compounds at 50 μM and 100 μM; Table 4. How it is done:
This assay was used to evaluate the disclosed compounds' inhibition activities against the hERG channel.
CHO-K1 cells stably expressing hERG were grown in Ham's F-12 Medium with Glutamine containing 10% heat-inactivated FBS, 1% Penicillin/Streptomycin, Hygromycin (100 μg/ml), and G418 (100 μg/ml). Cells used for electrophysiology were plated in plastic culture flasks and grown at 37° C. in a 5% CO2-humidified incubator per ChanPharm SOP. Stocks were maintained in cryogenic storage.
The cells were bathed in an extracellular solution containing 140 mM NaCl, 4 mM KCl, 2 mM CaCl2), 1 mM MgCl2, 5 mM Glucose, and 10 mM HEPES; pH adjusted to 7.4 with NaOH; 295-305 mOsm. The internal solution contained 10 mM KCl, 110 mM KF, 10 mM NaCl, 10 mM EGTA, 10 mM HEPES; pH adjusted to 7.2 with KOH; 280-285 mOsm. All compounds were dissolved in DMSO at 30 mM. Compound stock solutions were freshly diluted with external solution to concentrations of 50 μM and 100 μM. The highest content of DMSO […].
All experiments were performed at room temperature. Each cell acted as its own control. In preparation for a recording session, intracellular solution (see above) was loaded into the intracellular compartments of the automated patch clamp platform SyncroPatch (Nanion) chip and the cell suspension was pipetted into the extracellular compartments. After establishment of a whole-cell configuration, membrane current recordings, and compound application were enabled by means of the SyncroPatch. hERG currents were elicited by a voltage pulse pattern with fixed amplitudes (depolarization: +20 mV amplitude, 300 ms duration; repolarization: −50 mV, 300 ms duration) repeated at 3 s intervals from a holding potential of −80 mV.
Data acquisition and analysis were performed using DataControl384 (Nanion's proprietary software). To determine the (percentage) inhibition, the last single pulse in the pulse train (i.e., the repolarization step to −50 mV; tail current) at a given compound concentration was used. AUC and peak values, obtained in the presence of compound, were normalized to control values in the absence of compound.
Background: The hERG channel carries a current that helps repolarise heart muscle cells.

hERG channel, sequence (Q12809 whole entry): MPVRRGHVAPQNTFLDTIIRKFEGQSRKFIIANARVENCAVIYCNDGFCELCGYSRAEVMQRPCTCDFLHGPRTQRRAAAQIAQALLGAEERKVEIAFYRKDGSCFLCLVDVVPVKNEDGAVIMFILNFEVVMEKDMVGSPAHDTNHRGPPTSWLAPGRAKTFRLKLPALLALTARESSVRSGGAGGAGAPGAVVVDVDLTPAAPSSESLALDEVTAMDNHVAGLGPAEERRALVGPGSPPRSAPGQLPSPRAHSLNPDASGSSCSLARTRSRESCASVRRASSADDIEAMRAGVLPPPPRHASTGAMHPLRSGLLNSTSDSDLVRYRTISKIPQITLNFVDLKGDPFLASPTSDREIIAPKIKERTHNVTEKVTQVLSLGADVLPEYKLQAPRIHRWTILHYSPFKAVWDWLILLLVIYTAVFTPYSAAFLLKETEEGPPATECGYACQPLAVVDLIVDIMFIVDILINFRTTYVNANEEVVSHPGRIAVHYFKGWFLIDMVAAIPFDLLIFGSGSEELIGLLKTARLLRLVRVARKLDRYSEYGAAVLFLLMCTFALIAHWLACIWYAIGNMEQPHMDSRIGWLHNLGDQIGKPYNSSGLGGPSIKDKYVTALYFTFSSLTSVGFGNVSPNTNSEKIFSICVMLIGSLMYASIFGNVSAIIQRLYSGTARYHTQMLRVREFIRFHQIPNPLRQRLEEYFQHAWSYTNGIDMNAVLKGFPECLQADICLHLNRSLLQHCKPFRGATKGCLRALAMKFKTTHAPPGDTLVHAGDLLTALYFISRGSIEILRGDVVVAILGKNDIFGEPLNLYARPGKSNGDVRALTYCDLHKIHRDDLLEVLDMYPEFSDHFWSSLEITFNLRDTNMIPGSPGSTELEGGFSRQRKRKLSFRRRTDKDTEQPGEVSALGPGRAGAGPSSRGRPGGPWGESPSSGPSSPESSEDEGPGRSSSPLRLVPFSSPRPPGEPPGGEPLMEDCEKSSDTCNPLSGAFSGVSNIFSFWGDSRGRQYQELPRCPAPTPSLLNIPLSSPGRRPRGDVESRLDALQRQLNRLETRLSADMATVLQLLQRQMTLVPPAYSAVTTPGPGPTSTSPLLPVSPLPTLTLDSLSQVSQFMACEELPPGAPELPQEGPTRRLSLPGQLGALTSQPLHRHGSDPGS

Consider `Cc1cc(C(N)=O)cn(Cc2nc(CCc3ccc(Cl)cc3)no2)c1=O` [Compound 4, 1-({3-[2-(4-chlorophenyl)ethyl]-1,2,4-oxadiazol-5-yl}methyl)-5-methyl-6-oxopyridine-3-carboxamide], for which the IC50 at human TRPA1 channel (Table 4) was under 1000 nM; at hERG channel, over 50000 nM.

On to `NC(=O)c1cc(Cl)c(=O)n(Cc2nc(CCc3ccc(Cl)cc3)no2)c1` [Compound 6, 5-chloro-1-((3-(4-chlorophenethyl)-1,2,4-oxadiazol-5-yl)methyl)-6-oxo-1,6-dihydropyridine-3-carboxamide], for which the 50% inhibitory concentration (IC50) against human TRPA1 channel (Table 4) was under 300 nM; against hERG channel it was under 50000 nM.

`Cc1cc(-c2cn[nH]c2)cn(Cc2nc(CCc3ccc(Cl)cc3)no2)c1=O` [Compound 8, 1-((3-(4-chlorophenethyl)-1,2,4-oxadiazol-5-yl)methyl)-3-methyl-5-(1H-pyrazol-4-yl)pyridin-2(1H)-one]: the IC50 is under 10000 nM against human TRPA1 channel (Table 4) and under 50000 nM against hERG channel.

Take `Nc1ccn(Cc2nc(C[C@H](O)c3ccc(Cl)cc3)no2)c(=O)c1Cl` [Compound 14, (S)-4-amino-3-chloro-1-((3-(2-(4-chlorophenyl)-2-hydroxyethyl)-1,2,4-oxadiazol-5-yl)methyl)pyridin-2(1H)-one]: the IC50 against human TRPA1 channel (Table 4) was under 3000 nM; at hERG channel it was over 50000 nM.

For `O=c1c(Cl)c(CO)ccn1Cc1nc(C[C@H](O)c2ccc(Cl)cc2)no1` [Compound 17, (S)-3-chloro-1-((3-(2-(4-chlorophenyl)-2-hydroxyethyl)-1,2,4-oxadiazol-5-yl)methyl)-4-(hydroxymethyl)pyridin-2(1H)-one], the IC50 on human TRPA1 channel (Table 4) was under 1000 nM; against hERG channel, over 50000 nM.

With `Cn1cc(-c2ccn(Cc3nc(C[C@H](O)c4ccc(Cl)cc4)no3)c(=O)c2Cl)cn1` [Compound 18, (S)-3-chloro-1-((3-(2-(4-chlorophenyl)-2-hydroxyethyl)-1,2,4-oxadiazol-5-yl)methyl)-4-(1-methyl-1H-pyrazol-4-yl)pyridin-2(1H)-one], the values for the IC50 on human TRPA1 channel (Table 4) and against hERG channel were under 1000 nM and under 50000 nM, respectively.

On human TRPA1 channel (Table 4), `O=c1c(Cl)nc(Br)cn1Cc1nc(C[C@H](O)c2ccc(Cl)cc2)no1` [Compound 21, (S)-5-bromo-3-chloro-1-((3-(2-(4-chlorophenyl)-2-hydroxyethyl)-1,2,4-oxadiazol-5-yl)methyl)pyrazin-2(1H)-one] returned an IC50 of under 300 nM.

Regarding `O=c1c(Cl)nccn1Cc1nc(C[C@H](O)c2ccc(Cl)cc2)no1` [Compound 22, (S)-3-chloro-1-((3-(2-(4-chlorophenyl)-2-hydroxyethyl)-1,2,4-oxadiazol-5-yl)methyl)pyrazin-2(1H)-one], the IC50 against human TRPA1 channel (Table 4) was under 300 nM; on hERG channel, under 50000 nM.

Turning to `Cc1nc(C)c(=O)n(Cc2nc(CCc3ccc(Cl)cc3)no2)c1C` [Compound 23, 1-((3-(4-chlorophenethyl)-1,2,4-oxadiazol-5-yl)methyl)-3,5,6-trimethylpyrazin-2(1H)-one], the IC50 at human TRPA1 channel (Table 4) was under 1000 nM.

`Cc1nc(Cl)cn(Cc2nc(CCc3ccc(Cl)cc3)no2)c1=O` [Compound 24, 5-chloro-1-((3-(4-chlorophenethyl)-1,2,4-oxadiazol-5-yl)methyl)-3-methylpyrazin-2(1H)-one] returned an IC50 on human TRPA1 channel (Table 4) of under 1000 nM.

On human TRPA1 channel (Table 4), `Cc1nccn(Cc2nc(CCc3ccc(Cl)cc3)no2)c1=O` [Compound 25, 1-((3-(4-chlorophenethyl)-1,2,4-oxadiazol-5-yl)methyl)-3-methylpyrazin-2(1H)-one] gave an IC50 of under 3000 nM.

`Nc1c(Cl)c(F)n(Cc2nc(C[C@H](O)c3ccc(Cl)cc3)no2)c(=O)c1Cl` [Compound 28, (S)-4-amino-3,5-dichloro-1-((3-(2-(4-chlorophenyl)-2-hydroxyethyl)-1,2,4-oxadiazol-5-yl)methyl)-6-fluoropyridin-2(1H)-one] came in with an IC50 against human TRPA1 channel (Table 4) of under 1000 nM.

`Cc1ncc(C)n(Cc2nc(C[C@H](O)c3ccc(Cl)cc3)no2)c1=O` [Compound 31, (S)-1-((3-(2-(4-chlorophenyl)-2-hydroxyethyl)-1,2,4-oxadiazol-5-yl)methyl)-3,6-dimethylpyrazin-2(1H)-one]: the IC50 on human TRPA1 channel (Table 4) was under 1000 nM.

Consider `Cc1cn(Cc2nc(C[C@H](O)c3ccc(Cl)cc3)no2)c(=O)c(C)n1` [Compound 32, (S)-1-((3-(2-(4-chlorophenyl)-2-hydroxyethyl)-1,2,4-oxadiazol-5-yl)methyl)-3,5-dimethylpyrazin-2(1H)-one], for which the 50% inhibitory concentration (IC50) on human TRPA1 channel (Table 4) was under 1000 nM.

`Cc1c(N)ncn(Cc2nc(C[C@H](O)c3ccc(Cl)cc3)no2)c1=O` [Compound 33, (S)-6-amino-3-((3-(2-(4-chlorophenyl)-2-hydroxyethyl)-1,2,4-oxadiazol-5-yl)methyl)-5-methylpyrimidin-4(3H)-one] displayed an IC50 on human TRPA1 channel (Table 4) of under 1000 nM.

As for `Cc1ccc(Cl)c(=O)n1Cc1nc(C[C@H](O)c2ccc(Cl)cc2)no1` [Compound 34, (S)-3-chloro-1-((3-(2-(4-chlorophenyl)-2-hydroxyethyl)-1,2,4-oxadiazol-5-yl)methyl)-6-methylpyridin-2(1H)-one], the IC50 against human TRPA1 channel (Table 4) is under 1000 nM.

On human TRPA1 channel (Table 5), `NC(=O)c1ncn(Cc2nc(C[C@H](O)c3ccc(Cl)cc3)no2)c(=O)c1Cl` [Compound 62, (S)-5-chloro-1-((3-(2-(4-chlorophenyl)-2-hydroxyethyl)-1,2,4-oxadiazol-5-yl)methyl)-6-oxo-1,6-dihydropyrimidine-4-carboxamide] had an IC50 of under 1000 nM.

`O=c1c(Cl)c(Cl)ncn1Cc1nc(C[C@H](O)c2ccc(Cl)cc2)no1` [Compound 64, (S)-5,6-dichloro-3-((3-(2-(4-chlorophenyl)-2-hydroxyethyl)-1,2,4-oxadiazol-5-yl)methyl)pyrimidin-4(3H)-one] registered an IC50 on human TRPA1 channel (Table 5) of under 100 nM.

In turn, `Cc1ncn(Cc2nc(C[C@H](O)c3ccc(Cl)cc3)no2)c(=O)c1C` [Compound 68, (S)-3-((3-(2-(4-chlorophenyl)-2-hydroxyethyl)-1,2,4-oxadiazol-5-yl)methyl)-5,6-dimethylpyrimidin-4(3H)-one] yielded an IC50 against human TRPA1 channel (Table 5) of under 300 nM.

For the compound `Cc1ncc(Cl)c(=O)n1Cc1nc(C[C@H](O)c2ccc(Cl)cc2)no1` [Compound 69, (S)-5-chloro-3-((3-(2-(4-chlorophenyl)-2-hydroxyethyl)-1,2,4-oxadiazol-5-yl)methyl)-2-methylpyrimidin-4(3H)-one], the IC50 against human TRPA1 channel (Table 5) is under 1000 nM.

Turning to `Nc1ncn(Cc2nc(C[C@H](O)c3ccc(Cl)cc3)no2)c(=O)c1Cl` [Compound 72, (S)-6-amino-5-chloro-3-((3-(2-(4-chlorophenyl)-2-hydroxyethyl)-1,2,4-oxadiazol-5-yl)methyl)pyrimidin-4(3H)-one], at human TRPA1 channel (Table 5), the IC50 was under 300 nM.

`O=c1c(Cl)c(-c2cn[nH]c2)ccn1Cc1nc(C[C@H](O)c2ccc(Cl)cc2)no1` [Compound 74, (S)-3-chloro-1-((3-(2-(4-chlorophenyl)-2-hydroxyethyl)-1,2,4-oxadiazol-5-yl)methyl)-4-(1H-pyrazol-4-yl)pyridin-2(1H)-one]: on human TRPA1 channel (Table 5), the IC50 is under 1000 nM.

(Values after US20250270198A1, “PYRIDONE COMPOUNDS AS TRPA1 INHIBITORS” (D. E. Shaw Research, LLC, priority 2022, published 2025).)
